Measured values from US11974993B2, “Solution formulations of CX-011” (City of Hope, priority 2021, dated 2024).
Entries after “also recorded” stand apart in the source; their conditions may differ.

How the values were obtained:
[1] = Dissolution of solid CX-011 in solvents and excipient solutions, determined by visual inspection; type: physicochemical
Method: Confirmation of dissolution can be confirmed by visual inspection, either by the naked eye or by microscope, to detect the presence of undissolved particles. Spectroscopic methods can also be used, such as light scattering detection or absorbance spectroscopy. Apparatuses for such spectroscopic detection are well-known in the art.
Solid CX-011 (5 mg) was mixed in a solution of 20%-40% 2-Hydroxypropyl)-β-cyclodextrin (Accelachem) in water (10 mL) and the mixture sonicated for 30 minutes. Dissolution determined by visual inspection. Not soluble.
Solid CX-011 (5 mg) was mixed in a solution of 20%-40% 2-Hydroxypropyl)-β-cyclodextrin (Accelachem) in water (10 mL) and 50 μL 1N HCl and the mixture sonicated for 30 minutes. Dissolution determined by visual inspection. Not soluble.
Solid CX-011 (4 mg) was mixed in a solution of 3N HCl aqueous (2 mL) and the mixture sonicated for 30 minutes. Dissolution determined by visual inspection. Not soluble.
Solid CX-011 (2.6 mg) was mixed in a solution of ˜4N HCl in methanol (200 uL) and the mixture sonicated for 30 minutes. Dissolution determined by visual inspection. Not soluble.
Solvent was evaporated. The remaining residue was washed with ether twice, then dried. The dried residue was mixed with water (10 mL) and the mixture sonicated for 30 minutes. Dissolution determined by visual inspection. Not soluble.
Solid CX-011 (1 mg) was mixed in a solution of 10% polyvinylpyrrolidone K-30 (10 mL) and the mixture sonicated for 30 minutes. Dissolution determined by visual inspection. Not soluble.
Solid CX-011 (1.5 mg) was mixed in ethanol (0.5 mL) and the mixture sonicated for 30 minutes. Dissolution determined by visual inspection. Not soluble.
Solid CX-011 (3 mg) was mixed in propylene glycol (0.5 mL) (Spectrum) and the mixture sonicated for 30 minutes. Dissolution determined by visual inspection. Not soluble.
Water (0.5 mL) was added.
Solid CX-011 (2.8 mg) was added to PEG400 (0.5 mL) (Spectrum) and mixed on a vortexer until dissolved. Water (0.5 mL) was added.
Solid CX-011 (3.0 mg) was mixed in 30% Kolliphor® HS 15 (5 mL) (Sigma) and the mixture sonicated for 30 minutes. Dissolution determined by visual inspection.
Solid CX-011 (15 mg) was mixed in polysorbate 80 (1 mL) and the mixture sonicated for 30 minutes. The solution was clear.
(§1) 15 mg CX-011 was added to a 50 mL tube. A volume of 5-10 mL 30% kolliphor HS was added. […] Distilled water or other physiology buffer, for example, PBS or saline was added to the above completely dissolved solution to final volume 100 mL with gently stirring. The solution can be filtered through 0.22 um filter. The appearance and pH value was noted. The solution was clear with pH value 5-5.5 for water and saline solution and is 7.2 for PBS solution. […] The final Kolliphor HS concentration in solution is about 1.5%-3%.

[2] = system: pSTAT3 and MYC; details: disclosed in U.S. Patent Publication No. 2020/0377494A1; cited from earlier work
[3] = Properties of the CX-011 solution in Kolliphor HS 15: pH, 0.22 um filtration with UV absorbance at 323 nm, storage stability by appearance and HPLC; type: physicochemical
Method: Preparation of 30% (w/v) Kolliphor HS 15 in aqueous solution. Solid Kolliphor HS 15 was immersed in a water bath at 37° C. until melted. A 30% (w/v) solution was prepared by vortex mixing Kolliphor HS 15 with an appropriate amount of distilled water. The mixture was filtered through a 0.22 um PES filter (Corning).
as §1

[4] = system: aggrecan and collagen neoepitopes; details: disclosed in U.S. Patent Publication No. 2020/0377494A1; cited from earlier work

Compound: Cc1ccc(-c2csc(NC(=O)c3ccccn3)n2)cc1 [CX-011]
- Dissolution by visual inspection ([1]; Example 1: 5 mg in 10 mL 20%-40% 2-hydroxypropyl-β-cyclodextrin in water, sonicated 30 minutes): Not soluble
- Dissolution by visual inspection ([1]; Example 2: 5 mg in 10 mL 20%-40% 2-hydroxypropyl-β-cyclodextrin in water plus 50 μL 1N HCl, sonicated 30 minutes): Not soluble
- Dissolution by visual inspection ([1]; Example 3: 4 mg in 2 mL 3N HCl aqueous, sonicated 30 minutes): Not soluble
- Dissolution by visual inspection ([1]; Example 4: 2.6 mg in 200 uL ~4N HCl in methanol, sonicated 30 minutes): Not soluble
- Dissolution by visual inspection ([1]; Example 5: 6 mg treated with 1 eq MeSO3H in CH2Cl2, evaporated, dried residue in 10 mL water, sonicated 30 minutes): Not soluble
- Dissolution by visual inspection ([1]; Example 6: 1 mg in 10 mL 10% polyvinylpyrrolidone K-30, sonicated 30 minutes): Not soluble
- Dissolution by visual inspection ([1]; Example 7: 1.5 mg in 0.5 mL ethanol, sonicated 30 minutes): Not soluble
- Dissolution by visual inspection ([1]; Example 8: 3 mg in 0.5 mL propylene glycol, sonicated 30 minutes): Not soluble
- Appearance after addition of water ([1]; Example 9: 4 mg in 0.5 mL DMA, then 0.5 mL water added): Precipitation was observed
- Dissolution by visual inspection ([1]; Example 9: 4 mg in 0.5 mL DMA, vortexed): clear solution
- Appearance after addition of water ([1]; Example 10: 2.8 mg in 0.5 mL PEG400, then 0.5 mL water added): Precipitation was observed
- Dissolution by visual inspection ([1]; Example 10: 2.8 mg in 0.5 mL PEG400, vortexed): dissolved
- Dissolution by visual inspection ([1]; Example 11: 3.0 mg in 5 mL 30% Kolliphor HS 15, sonicated 30 minutes): Dissolved—clear solution
- Dissolution by visual inspection ([1]; Example 12: 15 mg in 1 mL polysorbate 80, sonicated 30 minutes): clear
- Appearance after addition of water ([1]; Example 12: 15 mg in 1 mL polysorbate 80, then 10 mL water added): precipitate was observed
- Appearance of the diluted solution ([1]; Example 14: 15 mg diluted to 100 mL with water, PBS or saline, final Kolliphor HS about 1.5%-3%): clear
- Dissolution by visual inspection ([1]; Example 14: 15 mg in 5-10 mL 30% Kolliphor HS, sonicated 2 hours): clear solution
- Solubility in aqueous solution ([1]; aqueous solution, general statement): poorly soluble; also recorded: poor solubility
- Levels of pSTAT3 and MYC [2]: did not increase
- Difference of the concentration of CX-011 before or after filtration ([3]; Example 14: 0.22 um filter, UV absorbance at 323 nm): no significant difference
- pH value of the solution ([3]; Example 14: PBS solution): 7.2
- pH value of the solution ([3]; Example 14: water and saline solution): 5-5.5
- Appearance of the solution on storage ([3]; Example 14 solution, after 1 week at room temperature): remained clear
- Stability of the compound by HPLC analysis ([3]; Example 14 solution, under preparation and storage): stable
- Generation of aggrecan and collagen neoepitopes [4]: almost completely blocked
